PubChem BioAssay AID248 (DTP/NCI, 2004)
Where “and” joins values, the source holds several entries; their conditions need not be identical. Equal values may be shown once. Inconclusive results and toxic doses are left out. No stated cut-off is given here; in the data, active means T/C of 150% or more; inactive means T/C below 125%.

System: L1210 leukemia ip in BDF1 mice, survival T/C
Assay: NCI In Vivo Anticancer Drug Screen. Data for tumor model L1210 Leukemia (intraperitoneal) in B6D2F1 (BDF1) mice
Details: endpoint: mean survival time, higher = longer survival
In short: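 Transplanted-tumor mice were given test agent; controls received vehicle only. Survival readings from the two groups were divided (treated over control).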

[1] = dose: 100.0 mg/kg/injection, schedule: Q01DX009 (ip), vehicle: Klucel (hydroxypropylcellulose) (HPC)
[2] = dose: 200.0 mg/kg/injection, schedule: Q01DX009 (ip), vehicle: Klucel (hydroxypropylcellulose) (HPC)
[3] = dose: 100.0 mg/kg/injection, schedule: Q04DX003 (ip), vehicle: saline with Tween-80
[4] = dose: 100.0 mg/kg/injection, schedule: Q01DX009 (ip), vehicle: saline with Tween-80
[5] = dose: 100.0 mg/kg/injection, schedule: Q04DX003 (ip), vehicle: other
[6] = dose: 200.0 mg/kg/injection, schedule: Q04DX003 (ip), vehicle: other
[7] = dose: 400.0 mg/kg/injection, schedule: Q04DX003 (ip), vehicle: other
[8] = dose: 50.0 mg/kg/injection, schedule: Q01DX009 (ip), vehicle: saline with Tween-80
[9] = dose: 100.0 mg/kg/injection, schedule: Q04DX003 (ip), vehicle: Klucel (hydroxypropylcellulose) (HPC)
[10] = dose: 200.0 mg/kg/injection, schedule: Q04DX003 (ip), vehicle: Klucel (hydroxypropylcellulose) (HPC)
[11] = dose: 400.0 mg/kg/injection, schedule: Q04DX003 (ip), vehicle: Klucel (hydroxypropylcellulose) (HPC)

Measured: T/C

O=C(O)c1cc([N+](=O)[O-])ccc1Br
inactive: dose: 50.0 mg/kg/injection, schedule: Q01DX009 (ip), vehicle: Klucel (hydroxypropylcellulose) (HPC) 89 % of control | [1] 86 % of control | [2] 93 % of control

NC(=O)C[n+]1cccc(C(N)=O)c1
inactive: dose: 100.0 mg/kg/injection, schedule: Q04DX003 (ip), vehicle: saline 97 % of control | dose: 200.0 mg/kg/injection, schedule: Q04DX003 (ip), vehicle: saline 101 % of control | dose: 400.0 mg/kg/injection, schedule: Q04DX003 (ip), vehicle: saline 101 % of control

C=C(C)c1c2ccccc2cc2cccc(Sc3ccccc3)c12
inactive: [3] 95 % of control | dose: 200.0 mg/kg/injection, schedule: Q04DX003 (ip), vehicle: saline with Tween-80 96 % of control | dose: 400.0 mg/kg/injection, schedule: Q04DX003 (ip), vehicle: saline with Tween-80 95 % of control

C/C(=N\O)C(C)C
inactive: dose: 100.0 mg/kg/injection, schedule: Q01DX001 (ip), vehicle: saline with Tween-80 93 % of control | [4] 100 % of control | dose: 200.0 mg/kg/injection, schedule: Q01DX001 (ip), vehicle: saline with Tween-80 101 % of control | dose: 200.0 mg/kg/injection, schedule: Q01DX009 (ip), vehicle: saline with Tween-80 98 % of control | dose: 400.0 mg/kg/injection, schedule: Q01DX001 (ip), vehicle: saline with Tween-80 98 % of control | dose: 400.0 mg/kg/injection, schedule: Q01DX009 (ip), vehicle: saline with Tween-80 92 % of control

C=C(Cl)CN(CCCC(=O)O)c1ccccc1
inactive: dose: 100.0 mg/kg/injection, schedule: Q01DX009 (ip), vehicle: other 108 % of control | [5] 98 % of control | dose: 200.0 mg/kg/injection, schedule: Q01DX009 (ip), vehicle: other 107 % of control | [6] 106 % of control | dose: 400.0 mg/kg/injection, schedule: Q01DX009 (ip), vehicle: other 102 % of control | [7] 108 % of control

O=C(CSc1cc(Cl)ccc1Cl)Nc1ccccc1
inactive: dose: 100.0 mg/kg/injection, schedule: Q01DX001 (ip), vehicle: other 95 % of control | dose: 200.0 mg/kg/injection, schedule: Q01DX001 (ip), vehicle: other 96 % of control | dose: 400.0 mg/kg/injection, schedule: Q01DX001 (ip), vehicle: other 96 % of control

O=c1[nH]c(-c2ccccc2)nc2c1OCN(Cc1ccccc1)C2
inactive: dose: 50.0 mg/kg/injection, schedule: Q01DX001 (ip), vehicle: carboxymethylcellulose (CMC) 98 % of control | dose: 100.0 mg/kg/injection, schedule: Q01DX001 (ip), vehicle: carboxymethylcellulose (CMC) 101 % of control | dose: 200.0 mg/kg/injection, schedule: Q01DX001 (ip), vehicle: carboxymethylcellulose (CMC) 98 % of control | dose: 400.0 mg/kg/injection, schedule: Q01DX001 (ip), vehicle: carboxymethylcellulose (CMC) 93 % of control

CCCCCCCCCCCCOCCC(=O)O
inactive: dose: 75.0 mg/kg/injection, schedule: Q01DX001 (ip), vehicle: saline 100 % of control | dose: 150.0 mg/kg/injection, schedule: Q01DX001 (ip), vehicle: saline 94 % of control | dose: 300.0 mg/kg/injection, schedule: Q01DX001 (ip), vehicle: saline 94 % of control

C=C(CCCC)CNCCOC(=O)c1ccc([N+](=O)[O-])cc1
inactive: dose: 12.5 mg/kg/injection, schedule: Q04DX003 (ip), vehicle: saline 98 % of control | dose: 25.0 mg/kg/injection, schedule: Q04DX003 (ip), vehicle: saline 93 % of control | dose: 50.0 mg/kg/injection, schedule: Q04DX003 (ip), vehicle: saline 100 % of control

O=[N+]([O-])c1cccc2cccnc12
inactive: dose: 50.0 mg/kg/injection, schedule: Q01DX001 (ip), vehicle: saline 107 % of control | [8] 95 % of control | dose: 100.0 mg/kg/injection, schedule: Q01DX001 (ip), vehicle: saline 107 % of control | [4] 93 % of control

ClC12CCC(Cl)(CC1)CC2
inactive: dose: 75.0 mg/kg/injection, schedule: Q01DX001 (ip), vehicle: acetone 103 % of control

CC1(C)C(=NNc2ccc([N+](=O)[O-])cc2[N+](=O)[O-])C(C)(C)C1(Cl)Cl
inactive: dose: 50.0 mg/kg/injection, schedule: Q04DX002 (ip), vehicle: Klucel (hydroxypropylcellulose) (HPC) 97 % of control | dose: 100.0 mg/kg/injection, schedule: Q04DX002 (ip), vehicle: Klucel (hydroxypropylcellulose) (HPC) 118 % of control | dose: 200.0 mg/kg/injection, schedule: Q04DX002 (ip), vehicle: Klucel (hydroxypropylcellulose) (HPC) 105 % of control

CC(C)CC(NC(=O)CNC(=O)OCc1ccccc1)C(=O)OCc1ccccc1 (stereo not drawn)
inactive: [5] 100 % of control | [6] 108 % of control | [7] 102 % of control

[N-]=[N+]=NC1=C(Cl)C(=O)c2ccccc2C1=O
inactive: dose: 6.25 mg/kg/injection, schedule: Q04DX002 (ip), vehicle: saline with Tween-80 101 % of control | dose: 12.5 mg/kg/injection, schedule: Q04DX002 (ip), vehicle: saline with Tween-80 96 % of control | dose: 25.0 mg/kg/injection, schedule: Q04DX002 (ip), vehicle: saline with Tween-80 96 % of control

CC1(C)SC(N=C=Nc2ccccc2)CN1C=O (stereo not drawn)
inactive: dose: 75.0 mg/kg/injection, schedule: Q01DX001 (ip), vehicle: other 96 % of control | dose: 150.0 mg/kg/injection, schedule: Q01DX001 (ip), vehicle: other 86 % of control | dose: 300.0 mg/kg/injection, schedule: Q01DX001 (ip), vehicle: other 93 % of control

CC1(C)C(=O)N(Br)C(=O)N1Br
inactive: dose: 12.5 mg/kg/injection, schedule: Q04DX003 (ip), vehicle: Klucel (hydroxypropylcellulose) (HPC) 92 % of control | dose: 25.0 mg/kg/injection, schedule: Q04DX003 (ip), vehicle: Klucel (hydroxypropylcellulose) (HPC) 103 % of control | dose: 50.0 mg/kg/injection, schedule: Q04DX003 (ip), vehicle: Klucel (hydroxypropylcellulose) (HPC) 103 % of control

C[CH2][Sn]([CH2]C)([CH2]C)[O]c1ccccc1
inactive: dose: 1.56 mg/kg/injection, schedule: Q01DX009 (ip), vehicle: saline with Tween-80 97 % of control | dose: 3.12 mg/kg/injection, schedule: Q01DX009 (ip), vehicle: saline with Tween-80 108 % of control

Brc1cnc[nH]1
inactive: dose: 25.0 mg/kg/injection, schedule: Q01DX009 (ip), vehicle: water 97 % of control | dose: 50.0 mg/kg/injection, schedule: Q01DX009 (ip), vehicle: water 90 % of control | dose: 100.0 mg/kg/injection, schedule: Q01DX009 (ip), vehicle: water 102 % of control | dose: 100.0 mg/kg/injection, schedule: Q04DX002 (ip), vehicle: saline 100 % of control | dose: 200.0 mg/kg/injection, schedule: Q04DX002 (ip), vehicle: saline 95 % of control | dose: 400.0 mg/kg/injection, schedule: Q01DX009 (ip), vehicle: water 98 % of control | dose: 400.0 mg/kg/injection, schedule: Q04DX002 (ip), vehicle: saline 92 % of control

COc1ccc(C(=O)c2ccc(C)cc2)cc1
inactive: [1] 102 % of control | [9] 95 % of control | [2] 105 % of control | [10] 101 % of control | dose: 400.0 mg/kg/injection, schedule: Q01DX009 (ip), vehicle: Klucel (hydroxypropylcellulose) (HPC) 96 % of control | [11] 102 % of control

O=S(=O)(F)c1ccc(-c2cc(Cl)c3c(Br)cc(Br)cc3n2)cc1
inactive: [9] 100 % of control | [10] 94 % of control | [11] 102 % of control

CCCCCc1ccc(C(=O)O)cc1
inactive: dose: 25.0 mg/kg/injection, schedule: Q01DX009 (ip), vehicle: saline with Tween-80 103 % of control | dose: 25.0 mg/kg/injection, schedule: Q04DX003 (ip), vehicle: saline with Tween-80 106 % of control | [8] 98 % of control | dose: 50.0 mg/kg/injection, schedule: Q04DX003 (ip), vehicle: saline with Tween-80 101 % of control | [4] 97 % of control | [3] 98 % of control and 102 % of control
